Reference: patent US20090017103A1, “Antisense oligonucleotides for prevention of metastasis formation of cancer cells” (priority 2003, published 2009)
Several values for one entry are separate records, joined by “and”; a condition that tells them apart may be missing. Equal entries are not always repeated. Entries after “also recorded” stand apart in the source; their conditions may differ. Marks after values point to notes of the source that are not given here.

Legend:
[1] = test system: MDA-MB-231 breast cancer cells; assay: Clonogenicity assay (colony formation); type: cell-based, human; conditions: for inhibition of colony formation (colony growth inhibition): single exposure
How it was run: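 MDA-MB-231 cells given lipofectamine-complexed ASO (5, 10 or 20 μM, 12 h) and/or ErPC3 (10, 14, 20 μM, 24 h), singly or in sequential cycles, then grown 48-72 h. 5000 cells plated in methylcellulose/30% FBS; MTT-stained colonies (≥30 cells) counted after 5-7 days.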

MDA-MB-231^GFP cells [2] = assay: In vivo treatment with mini-osmotic pumps (osteolytic bone metastasis model);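 on Mean size of lesion: mean lesion size in relative units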;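 on Size of lesion (per animal): lesion size in relative units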; parameters: species or system nude rats; conditions: for X-ray scan of hind legs: lytic lesions (in words): FIG. 5-7; for T/C: vs NSO control; for T/C × 100: mean lesion size vs NSO control rats; for Incidence of metastasis: mini-osmotic pumps s.c., 7 mg/kg daily over four weeks
MDA-MB-231^GFP cells [3] = assay: In vivo model with pretreated MDA-MB-231^GFP cells (osteolytic bone metastasis); parameters: species or system nude rats; lesion size of the rat(s) that developed lytic metastasis, % of control / lesion sizes with respect to all animals of the group compared to untreated control / lesion size of individual animal compared to the untreated control / T/C % (mean lesion size compared to untreated control): concentration or dose not given beside the values; conditions: for T/C × 100: mean lesion size vs untreated control rats; for rats in which formation of osteolytic metastasis was inhibited (no visible metastasis): cells pre-exposed to ASO, observation period of eight weeks; for Incidence of metastasis: cells pretreated in vitro (10 μM);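 on Mean size of lesion: mean lesion size in relative units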
[4] = observation period 8 weeks, pretreated cells
[5] = pretreated cells, after eight weeks
[6] = pretreated cells, after four weeks

5′-GCT-TTC-TTC-GTT-TTC-ATT-TC-3′ [ASO-BSPII-6]
% Control ([1]; Exp. III a, repeated exposure 2 × 5 μM): 91%
Mean colony no. ([1]; Exp. III a, repeated exposure 2 × 5 μM, control 456): 415^6,8)
% Control ([1]; Exp. III a, repeated exposure 2 × 10 μM): 82%
Mean colony no. ([1]; Exp. III a, repeated exposure 2 × 10 μM, control 456): 373^8)
% Control ([1]; Exp. III a, repeated exposure 2 × 20 μM): 72%
Mean colony no. ([1]; Exp. III a, repeated exposure 2 × 20 μM, control 456): 326^8)
% Control ([1]; Experiment I, single treatment, 5 μM): 89%
Mean colony no. ([1]; Experiment I, single treatment, 5 μM, control 778): 692^6)
% Control ([1]; Experiment I, single treatment, 10 μM): 81%
Mean colony no. ([1]; Experiment I, single treatment, 10 μM, control 778): 632^7)
% Control ([1]; Experiment I, single treatment, 20 μM): 61%
Mean colony no. ([1]; Experiment I, single treatment, 20 μM, control 778): 478
% Control ([1]; Experiment III b, repeated exposure 2 × 5 μM): 70%
Mean colony no. ([1]; Experiment III b, repeated exposure 2 × 5 μM, control 517): 363^6,8)
% Control ([1]; Experiment III b, repeated exposure 2 × 10 μM): 55%
Mean colony no. ([1]; Experiment III b, repeated exposure 2 × 10 μM, control 517): 282^8)
% Control ([1]; Experiment III b, repeated exposure 2 × 20 μM): 49%
Mean colony no. ([1]; Experiment III b, repeated exposure 2 × 20 μM, control 517): 251^8)
inhibition of colony formation (colony growth inhibition) ([1]; 5 μM): 11%
inhibition of colony formation (colony growth inhibition) ([1]; 10 μM): 19%
inhibition of colony formation (colony growth inhibition) ([1]; 20 μM): 39%
repeated exposure compared with single exposure, colony formation (in words) ([1]; twofold vs single ASO exposure): no increased inhibition of colony formation as compared with single exposure
X-ray scan of hind legs: lytic lesions (in words) (MDA-MB-231^GFP cells [2]; eight weeks after tumor cell implantation): clear increase of lytic lesions in the tibia, however new formation of bone tissue at the edges of the lesions
X-ray scan of hind legs: lytic lesions (in words) (MDA-MB-231^GFP cells [2]; four weeks after tumor cell implantation, therapy from implantation): small lytic lesions in the tibia
X-ray scan of hind legs: lytic lesions (in words) (MDA-MB-231^GFP cells [2]; six weeks after tumor cell implantation): visible lytic lesions in the tibia
X-ray scan of hind legs: lytic lesions (in words) (MDA-MB-231^GFP cells [2]; ten weeks after tumor cell implantation): lytic lesions are no longer visible in the region of the tibia
animals that did not develop metastases (MDA-MB-231^GFP cells [2]; mini-osmotic pumps, 12 weeks): one animal out of the five
T/C (MDA-MB-231^GFP cells [2]; mini-osmotic pumps, week 4): 39%
T/C (MDA-MB-231^GFP cells [2]; mini-osmotic pumps, week 12): 2%
T/C × 100 (MDA-MB-231^GFP cells [2]; week 4): 39
Mean size of lesion (MDA-MB-231^GFP cells [2]; week 4, mini-osmotic pumps): 13 R.U.
Size of lesion (per animal) (MDA-MB-231^GFP cells [2]; week 4, mini-osmotic pumps): 11 R.U. and 0 R.U. and 32 R.U. and 8 R.U. and 23 R.U.
Incidence of metastasis (MDA-MB-231^GFP cells [2]; week 4): 4/5
T/C × 100 (MDA-MB-231^GFP cells [2]; week 6): 18
Mean size of lesion (MDA-MB-231^GFP cells [2]; week 6, mini-osmotic pumps): 32 R.U.
Size of lesion (per animal) (MDA-MB-231^GFP cells [2]; week 6, mini-osmotic pumps): 39 R.U. and 0 R.U. (2×) and 83 R.U. and 37 R.U.
Incidence of metastasis (MDA-MB-231^GFP cells [2]; week 6): 3/5
T/C × 100 (MDA-MB-231^GFP cells [2]; week 8): 11
Mean size of lesion (MDA-MB-231^GFP cells [2]; week 8, mini-osmotic pumps): 29 R.U.
Size of lesion (per animal) (MDA-MB-231^GFP cells [2]; week 8, mini-osmotic pumps): 52 R.U. and 0 R.U. (2×) and 50 R.U. and 43 R.U.
Incidence of metastasis (MDA-MB-231^GFP cells [2]; week 8): 3/5
T/C × 100 (MDA-MB-231^GFP cells [2]; week 9): 7
Mean size of lesion (MDA-MB-231^GFP cells [2]; week 9, mini-osmotic pumps): 28 R.U.
Size of lesion (per animal) (MDA-MB-231^GFP cells [2]; week 9, mini-osmotic pumps): 28 R.U. and 0 R.U. (2×) and 36 R.U. and 78 R.U.
Incidence of metastasis (MDA-MB-231^GFP cells [2]; week 9): 3/5
T/C × 100 (MDA-MB-231^GFP cells [2]; week 10): 5
Mean size of lesion (MDA-MB-231^GFP cells [2]; week 10, mini-osmotic pumps): 20 R.U.
Size of lesion (per animal) (MDA-MB-231^GFP cells [2]; week 10, mini-osmotic pumps): 17 R.U. and 0 R.U. (2×) and 29 R.U. and 52 R.U.
Incidence of metastasis (MDA-MB-231^GFP cells [2]; week 10): 3/5
T/C × 100 (MDA-MB-231^GFP cells [2]; week 12): 2
Mean size of lesion (MDA-MB-231^GFP cells [2]; week 12, mini-osmotic pumps): 9 R.U.
Size of lesion (per animal) (MDA-MB-231^GFP cells [2]; week 12, mini-osmotic pumps): 0 R.U. (3×) and 18 R.U. and 29 R.U.
Incidence of metastasis (MDA-MB-231^GFP cells [2]; week 12): 2/5
T/C × 100 (MDA-MB-231^GFP cells [3]; 4 weeks): 1.6
T/C × 100 (MDA-MB-231^GFP cells [3]; 6 weeks): 2.9
T/C × 100 (MDA-MB-231^GFP cells [3]; 8 weeks): 9.1
X-ray scan of hind legs: osteolytic lesions (in words) (MDA-MB-231^GFP cells [3]; FIG. 3 and FIG. 4, one rat each, cells pre-exposed): a minute osteolytic lesion in the tibia only; also recorded: a small lesion in the tibia
rats in which formation of osteolytic metastasis was inhibited (no visible metastasis) (MDA-MB-231^GFP cells [3]): two out of four
rats in which formation of osteolytic metastasis was inhibited (no visible metastasis) (MDA-MB-231^GFP cells [3]; listed as ASO-BSPII-06): two of four and 2 of 4
Incidence of metastasis (MDA-MB-231^GFP cells [3]; observation period 4 weeks): 1/4
Mean size of lesion (MDA-MB-231^GFP cells [3]; observation period 4 weeks, pretreated cells): 3.5 R.U.
Incidence of metastasis (MDA-MB-231^GFP cells [3]; observation period 6 weeks): 1/4
Mean size of lesion (MDA-MB-231^GFP cells [3]; observation period 6 weeks, pretreated cells): 8.8 R.U.
Incidence of metastasis (MDA-MB-231^GFP cells [3]; observation period 8 weeks): 2/4
Mean size of lesion (MDA-MB-231^GFP cells [3]; [4]): 31.5 R.U.
Size of lesion (per animal) (MDA-MB-231^GFP cells [3]; [4]): 106^5) R.U.
T/C % (mean lesion size compared to untreated control) (MDA-MB-231^GFP cells [3]; [5]): 9.1%
lesion size of individual animal compared to the untreated control (MDA-MB-231^GFP cells [3]; [5]): about 30% and 6%
animals in which formation of lytic metastases was prevented (MDA-MB-231^GFP cells [3]; [6]): three out of four
lesion size of individual animal compared to the untreated control (MDA-MB-231^GFP cells [3]; [6]): 6.4%
lesion size of individual animal compared to the untreated control (MDA-MB-231^GFP cells [3]; pretreated cells, after six weeks): about 12%
lesion size of the rat(s) that developed lytic metastasis (MDA-MB-231^GFP cells [3]; pretreated cells, week 4): 14 R.U.
lesion size of the rat(s) that developed lytic metastasis, % of control (MDA-MB-231^GFP cells [3]; pretreated cells, week 4, vs mean of the two control groups (197 R.U.)): 7%
lesion size of the rat(s) that developed lytic metastasis (MDA-MB-231^GFP cells [3]; pretreated cells, week 8): 63 R.U.
lesion size of the rat(s) that developed lytic metastasis, % of control (MDA-MB-231^GFP cells [3]; pretreated cells, week 8, vs mean of the two control groups (416 R.U.)): 15%
